Patent publication US10570149B2, “Tricyclic heterocylic derivatives” (MERCK PATENT GMBH, priority 2016, dated 2020)

Biological target: T1, ATR/ATRIP (Homo sapiens, UniProt Q13535)
T1 construct: human ATR, full length, GenBank ID: NM_001184.3; p53: Sf21 insect cells
Experiment: ATR/ATRIP kinase assay (TR-FRET, p53 phosphorylation)
Assay type: biochemical
Conditions: Table 1, class symbols; read-out: ATR-ATRIP IC50
Protocol: ATR/ATRIP Kinase Assay—Measurement of ATR/ATRIP Inhibition
The IC50 value was determined by an ATR/ATRIP enzymatic assay. The assay comprises two steps: the enzymatic reaction and the detection step. First, a mixture of ATR/ATRIP protein (Ataxia Telangiectasia and Rad3-related protein/ATR interacting protein), the compound in question at different concentrations, p53 as substrate protein and adenosine triphosphate (ATP) are incubated in assay buffer. ATR phosphorylates p53 at Ser15 and other residues. The amount of phosphorylated p53 is then detected using specific antibodies and the TR-FRET assay technology.
In detail: The ATR/ATRIP enzymatic assay is performed as a TR-FRET-(HTRF™, Cisbio Bioassays) based 384-well assay. In a first step, purified human recombinant ATR/ATRIP (human ATR, full length, GenBank ID: NM_001184.3, and human ATRIP, full length, GenBank ID AF451323.1, co-expressed in a mammalian cell line) is incubated in assay buffer for 15 minutes at 22° C. with test compound at different concentrations or without test compound (as a negative control). The assay buffer contains 25 mM HEPES pH 8.0, 10 mM Mg(CH3COO)2, 1 mM MnCl2, 0.1% BSA, 0.01% Brij® 35, and 5 mM dithiothreitol (DTT). […] Then, in a second step, purified human recombinant cmyc-tagged p53 (human p53, full length, GenBank ID: BC003596, expressed in Sf21 insect cells) and ATP are added and the reaction mixture is incubated for 25-35 minutes, typically 25 minutes, at 22° C. The pharmacologically relevant assay volume is 5 μl. The final concentrations in the assay during incubation of the reaction mixture are 0.3-0.5 nM, typically 0.3 nM, ATR/ATRIP, 50 nM p53, and 0.5 μM ATP. The enzymatic reaction is stopped by the addition of EDTA. […] Following signal development for 2 h the plates are analyzed in an EnVision (PerkinElmer) microplate reader using the TRF mode with laser excitation. […] Data are processed employing the Genedata Screener software. In particular, IC50 values are determined in the usual manner by fitting a dose-response curve to the data points using nonlinear regression analysis.

T1 sequence (Q13535 whole entry): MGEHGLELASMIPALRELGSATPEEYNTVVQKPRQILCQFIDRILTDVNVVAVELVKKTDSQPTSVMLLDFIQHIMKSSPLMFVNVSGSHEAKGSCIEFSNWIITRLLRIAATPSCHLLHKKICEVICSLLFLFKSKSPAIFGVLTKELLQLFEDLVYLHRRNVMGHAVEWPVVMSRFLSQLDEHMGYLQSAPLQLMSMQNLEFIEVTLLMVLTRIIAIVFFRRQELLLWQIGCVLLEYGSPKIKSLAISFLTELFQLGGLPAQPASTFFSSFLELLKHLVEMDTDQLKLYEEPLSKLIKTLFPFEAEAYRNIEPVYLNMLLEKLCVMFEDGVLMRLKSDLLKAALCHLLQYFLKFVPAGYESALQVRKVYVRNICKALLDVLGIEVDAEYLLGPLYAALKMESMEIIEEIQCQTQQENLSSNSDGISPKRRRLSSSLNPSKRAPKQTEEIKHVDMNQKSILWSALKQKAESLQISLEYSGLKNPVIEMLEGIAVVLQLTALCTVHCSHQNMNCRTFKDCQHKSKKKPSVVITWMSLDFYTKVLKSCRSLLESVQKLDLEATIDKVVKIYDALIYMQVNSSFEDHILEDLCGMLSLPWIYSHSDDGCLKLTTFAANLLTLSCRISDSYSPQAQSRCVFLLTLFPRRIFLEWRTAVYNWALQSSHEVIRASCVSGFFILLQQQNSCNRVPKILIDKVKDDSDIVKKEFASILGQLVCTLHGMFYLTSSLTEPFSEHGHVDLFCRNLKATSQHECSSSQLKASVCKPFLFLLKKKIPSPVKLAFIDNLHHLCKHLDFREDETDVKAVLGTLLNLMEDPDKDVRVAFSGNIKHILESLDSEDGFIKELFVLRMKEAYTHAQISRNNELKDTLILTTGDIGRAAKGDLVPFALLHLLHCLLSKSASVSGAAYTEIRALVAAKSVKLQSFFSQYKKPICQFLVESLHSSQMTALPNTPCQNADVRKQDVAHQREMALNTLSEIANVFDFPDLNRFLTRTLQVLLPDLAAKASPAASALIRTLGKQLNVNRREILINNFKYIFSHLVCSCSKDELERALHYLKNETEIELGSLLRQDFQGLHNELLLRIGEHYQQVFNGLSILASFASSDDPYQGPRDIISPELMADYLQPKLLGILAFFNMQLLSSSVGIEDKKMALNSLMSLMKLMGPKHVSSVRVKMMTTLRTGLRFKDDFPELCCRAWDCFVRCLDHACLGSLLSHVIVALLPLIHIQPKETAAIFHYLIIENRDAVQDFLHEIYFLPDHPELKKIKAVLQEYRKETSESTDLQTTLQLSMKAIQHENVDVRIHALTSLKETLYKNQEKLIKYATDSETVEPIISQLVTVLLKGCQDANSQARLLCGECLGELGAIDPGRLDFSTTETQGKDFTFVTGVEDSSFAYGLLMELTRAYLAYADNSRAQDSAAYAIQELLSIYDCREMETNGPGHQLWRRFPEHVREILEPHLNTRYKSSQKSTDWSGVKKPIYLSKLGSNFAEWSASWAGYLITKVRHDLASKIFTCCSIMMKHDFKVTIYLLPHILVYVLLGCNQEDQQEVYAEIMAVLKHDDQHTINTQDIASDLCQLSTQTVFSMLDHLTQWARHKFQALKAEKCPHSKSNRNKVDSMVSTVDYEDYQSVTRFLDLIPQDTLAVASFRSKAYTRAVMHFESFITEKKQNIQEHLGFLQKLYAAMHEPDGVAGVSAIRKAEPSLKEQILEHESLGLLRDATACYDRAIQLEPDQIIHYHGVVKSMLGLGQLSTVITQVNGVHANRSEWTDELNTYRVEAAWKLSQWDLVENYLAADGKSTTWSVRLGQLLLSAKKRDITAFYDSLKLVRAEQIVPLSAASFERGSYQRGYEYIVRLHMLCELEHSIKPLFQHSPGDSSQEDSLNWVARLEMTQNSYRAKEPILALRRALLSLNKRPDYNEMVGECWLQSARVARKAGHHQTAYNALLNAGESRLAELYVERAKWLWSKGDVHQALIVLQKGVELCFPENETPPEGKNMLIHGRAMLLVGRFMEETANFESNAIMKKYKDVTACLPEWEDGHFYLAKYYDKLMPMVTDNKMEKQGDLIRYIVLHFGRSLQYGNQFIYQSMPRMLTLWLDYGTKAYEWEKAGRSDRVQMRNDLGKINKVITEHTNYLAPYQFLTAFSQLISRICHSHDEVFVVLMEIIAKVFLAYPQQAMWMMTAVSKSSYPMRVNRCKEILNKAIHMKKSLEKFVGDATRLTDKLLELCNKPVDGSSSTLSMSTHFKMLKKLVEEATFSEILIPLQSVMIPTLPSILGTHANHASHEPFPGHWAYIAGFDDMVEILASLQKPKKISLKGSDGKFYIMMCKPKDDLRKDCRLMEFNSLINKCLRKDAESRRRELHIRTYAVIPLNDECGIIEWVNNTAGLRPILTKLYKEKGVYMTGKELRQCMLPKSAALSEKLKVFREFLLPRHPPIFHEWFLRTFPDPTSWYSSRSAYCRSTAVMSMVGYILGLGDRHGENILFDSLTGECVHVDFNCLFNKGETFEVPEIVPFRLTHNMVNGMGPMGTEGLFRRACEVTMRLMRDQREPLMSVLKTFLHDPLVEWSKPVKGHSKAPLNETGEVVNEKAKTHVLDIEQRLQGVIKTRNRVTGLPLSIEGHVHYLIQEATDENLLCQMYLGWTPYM
T1 sequence (Q8WXE1 whole entry partner): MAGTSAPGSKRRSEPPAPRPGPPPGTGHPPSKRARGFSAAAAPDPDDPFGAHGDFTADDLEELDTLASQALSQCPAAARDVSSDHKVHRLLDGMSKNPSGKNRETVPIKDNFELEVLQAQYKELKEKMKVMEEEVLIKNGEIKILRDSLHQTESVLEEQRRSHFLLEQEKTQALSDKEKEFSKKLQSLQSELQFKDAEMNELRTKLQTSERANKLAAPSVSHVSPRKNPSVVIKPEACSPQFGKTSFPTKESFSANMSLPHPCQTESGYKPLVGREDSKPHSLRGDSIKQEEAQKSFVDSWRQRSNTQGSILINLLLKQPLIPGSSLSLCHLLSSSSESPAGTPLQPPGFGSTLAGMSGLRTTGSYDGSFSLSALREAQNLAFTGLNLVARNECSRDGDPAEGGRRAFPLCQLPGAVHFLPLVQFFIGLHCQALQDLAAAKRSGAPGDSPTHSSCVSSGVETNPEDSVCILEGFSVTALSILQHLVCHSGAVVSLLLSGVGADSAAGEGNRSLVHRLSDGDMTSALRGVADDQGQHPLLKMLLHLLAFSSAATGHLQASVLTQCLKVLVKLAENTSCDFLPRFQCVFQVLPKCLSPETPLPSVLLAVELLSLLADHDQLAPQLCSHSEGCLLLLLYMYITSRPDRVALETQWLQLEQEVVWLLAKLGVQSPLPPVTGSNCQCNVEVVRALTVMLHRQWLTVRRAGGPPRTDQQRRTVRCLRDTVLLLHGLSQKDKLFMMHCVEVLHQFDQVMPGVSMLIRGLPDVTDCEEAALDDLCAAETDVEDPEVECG

IC50 | Compound
10 to 100 nM | C[C@@H]1COC[C@H]2COc3c(nc(-c4ccc5ncccc5c4)nc3C(C)(C)S(C)(=O)=O)N21 [A77, (5R,8aS)-1-(1-methanesulfonyl-1-methyl-ethyl)-5-methyl-3-quinolin-6-yl-5,6,8a,9-tetrahydro-8H-7,10-dioxa-2,4,4b-triaza-phenanthrene]
10 to 100 nM | CNc1nc2ccccc2n1-c1nc(Cn2cc(C(=O)OC)nn2)c2c(n1)N1[C@@H](COC[C@H]1C)CO2 [A22, 1-[(5R,8aS)-5-Methyl-3-(2-methylamino-benzoimidazol-1-yl)-5,6,8a,9-tetrahydro-8H-7,10-dioxa-2,4,4b-triaza-phenanthren-1-ylmethyl]-1H[1,2,3]triazole-4-carboxylic Acid Methyl Ester]
1 to 10 nM | COC(=O)c1cn(Cc2nc(-c3ccnc4[nH]ccc34)nc3c2OC[C@@H]2COC[C@@H](C)N32)nn1 [A18, 1-[(5R,8aS)-5-Methyl-3-(1H-pyrrolo[2,3-b]pyridin-4-yl)-5,6,8a,9-tetrahydro-8H-7,10-dioxa-2,4,4b-triaza-phenanthren-1-ylmethyl]-1H-[1,2,3]triazole-4-carboxylic Acid Methyl Ester]
10 to 100 nM | CNCc1c[nH]c2ncc(F)c(-c3nc4c(c(C(C)(C)O)n3)OC[C@@H]3COC[C@@H](C)N43)c12 [A5, 2-[(5R,8aS)-3-(5-Fluoro-3-methylaminomethyl-1H-pyrrolo[2,3-b]pyridin-4-yl)-5-methyl-5,6,8a,9-tetrahydro-8H-7,10-dioxa-2,4,4b-triaza-phenanthren-1-yl]-propan-2-ol]
100 to 500 nM | COC(=O)c1cn(Cc2nc(-c3ccnc4c3ccn4C)nc3c2OC[C@@H]2COC[C@@H](C)N32)nn1 [A19, 1-[(5R,8aS)-5-Methyl-3-(1-methyl-1H-pyrrolo[2,3-b]pyridin-4-yl)-5,6,8a,9-tetrahydro-8H-7,10-dioxa-2,4,4b-triaza-phenanthren-1-ylmethyl]-1H[1,2,3]triazole-4-carboxylic Acid Methyl Ester]

Further lines, the compound ahead of its results:

Compound | IC50
C[C@@H]1COC[C@H]2COc3c(nc(Nc4cn[nH]c4)nc3C(C)(C)S(C)(=O)=O)N21 [A75, [(5R,8aS)-1-(1-methanesulfonyl-1-methyl-ethyl)-5-methyl-5,6,8a,9-tetrahydro-8H-7,10-dioxa-2,4,4b-triaza-phenanthren-3-yl]-(1H-pyrazol-4-yl)-amine] | 10 to 100 nM
C[C@@H]1COC[C@H]2COc3c(nc(C(=O)N4CC[C@@H](N)C4)nc3C(C)(C)S(C)(=O)=O)N21 [A51, ((R)-3-amino-pyrrolidin-1-yl)-[(4bS,6R)-1-(1-methanesulfonyl-1-methyl-ethyl)-5-methyl-5,6,8a,9-tetrahydro-8H-7,10-dioxa-2,4,4b-triaza-phenanthren-3-yl]-methanone] | 500 to 30000 nM
C[C@@H]1COC[C@H]2COc3c(nc(-c4ccc(-c5ccn[nH]5)cc4)nc3C(C)(C)S(C)(=O)=O)N21 [A60, (5R,8aS)-1-(1-methanesulfonyl-1-methyl-ethyl)-5-methyl-3-[4-(2H-pyrazol-3-yl)-phenyl]-5,6,8a,9-tetrahydro-8H-7,10-dioxa-2,4,4b-triaza-phenanthrene] | 10 to 100 nM
C[C@H](O)CNC(=O)c1nc2c(c(C(C)(C)S(C)(=O)=O)n1)OC[C@@H]1COC[C@@H](C)N21 [A54, (4bS,6R)-1-(1-methanesulfonyl-1-methyl-ethyl)-5-methyl-5,6,8a,9-tetrahydro-8H-7,10-dioxa-2,4,4b-triaza-phenanthrene-3-carboxylic Acid ((S)-2-hydroxy-propyl)-amide] | 500 to 30000 nM
C[C@@H]1COC[C@H]2COc3c(nc(-n4ccc(O)n4)nc3C(C)(C)S(C)(=O)=O)N21 [A82, 1-[(5R,8aS)-1-(1-methanesulfonyl-1-methyl-ethyl)-5-methyl-5,6,8a,9-tetrahydro-8H-7,10-dioxa-2,4,4b-triaza-phenanthren-3-yl]-1H-pyrazol-3-ol] | 10 to 100 nM
